Measured values published in BindingDB's records for doi:10.1124/jpet.102.038075 (Nih, 2002).
pKi: −log10 of the molar value. Several values for one entry are separate records, joined by “and”; a condition that tells them apart may be missing. Equal entries are not always repeated. Bridge positions count the residues as written; N and C are the ends. Square brackets hold non-standard residues; d marks the D form. Peptide text beside a SMILES is read from it. Nle = CCCC[C@H](N)C(=O)O

Tests used:
[1] = target: T1, Vasoactive intestinal polypeptide receptor 2 (Homo sapiens, UniProt P41587)
T1 sequence (P41587 whole entry): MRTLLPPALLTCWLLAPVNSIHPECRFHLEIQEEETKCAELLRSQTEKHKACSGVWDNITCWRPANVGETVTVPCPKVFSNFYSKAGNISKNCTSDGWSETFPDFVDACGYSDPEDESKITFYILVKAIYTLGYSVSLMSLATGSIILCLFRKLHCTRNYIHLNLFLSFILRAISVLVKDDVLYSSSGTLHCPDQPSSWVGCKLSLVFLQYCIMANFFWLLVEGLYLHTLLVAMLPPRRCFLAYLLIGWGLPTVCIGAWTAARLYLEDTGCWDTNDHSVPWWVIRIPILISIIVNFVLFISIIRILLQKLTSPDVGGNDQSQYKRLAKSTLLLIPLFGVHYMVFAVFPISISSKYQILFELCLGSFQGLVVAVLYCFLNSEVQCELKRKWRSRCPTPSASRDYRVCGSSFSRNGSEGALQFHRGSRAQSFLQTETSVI

[2] = target: T2, Vasoactive intestinal polypeptide receptor 2 (Rattus norvegicus, UniProt P35000)
T2 sequence (P35000 whole entry): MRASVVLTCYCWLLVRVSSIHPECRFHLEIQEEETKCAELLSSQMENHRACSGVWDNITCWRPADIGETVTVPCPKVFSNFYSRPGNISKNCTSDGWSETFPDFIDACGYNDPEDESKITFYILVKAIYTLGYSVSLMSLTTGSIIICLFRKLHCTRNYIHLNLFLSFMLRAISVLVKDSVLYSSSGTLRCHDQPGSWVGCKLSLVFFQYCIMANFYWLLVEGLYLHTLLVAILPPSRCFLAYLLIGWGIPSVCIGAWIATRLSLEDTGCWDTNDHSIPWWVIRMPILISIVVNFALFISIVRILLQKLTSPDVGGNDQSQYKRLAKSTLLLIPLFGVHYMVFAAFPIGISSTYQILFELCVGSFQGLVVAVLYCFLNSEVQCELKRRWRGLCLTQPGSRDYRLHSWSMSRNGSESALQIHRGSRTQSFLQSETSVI

[3] = target: T3, Vasoactive intestinal polypeptide receptor 1 (Homo sapiens, UniProt P32241)
T3 sequence (P32241 whole entry): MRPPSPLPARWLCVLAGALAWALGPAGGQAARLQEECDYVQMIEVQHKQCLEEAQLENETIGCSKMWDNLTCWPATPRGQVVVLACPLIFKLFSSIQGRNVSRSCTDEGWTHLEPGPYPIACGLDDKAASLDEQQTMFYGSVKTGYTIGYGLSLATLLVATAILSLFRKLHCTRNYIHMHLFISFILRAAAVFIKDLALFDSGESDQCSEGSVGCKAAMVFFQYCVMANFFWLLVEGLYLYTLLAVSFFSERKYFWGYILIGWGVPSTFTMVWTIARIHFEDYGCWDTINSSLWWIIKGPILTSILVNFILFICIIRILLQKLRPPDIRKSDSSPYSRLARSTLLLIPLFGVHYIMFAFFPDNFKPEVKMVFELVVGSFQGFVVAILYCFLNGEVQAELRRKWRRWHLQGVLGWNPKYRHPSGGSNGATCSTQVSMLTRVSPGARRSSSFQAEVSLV

pKi [1]	pKi [2]	pKi [3]	Compound
5.77 and 5.95 and 5.52	6.86 and 6.20	–	CC[C@H](C)[C@H](NC(=O)[C@H](CO)NC(=O)[C@H](CC(N)=O)NC(=O)[C@H](CC(C)C)NC(=O)[C@H](Cc1ccc(O)cc1)NC(=O)[C@H](CCCCN)NC(=O)[C@H](CCCCN)NC(=O)[C@@H](NC(=O)[C@H](C)NC(=O)[C@H](CCSC)NC(=O)[C@H](CCC(N)=O)NC(=O)[C@H](CCCCN)NC(=O)[C@H](CCCN=C(N)N)NC(=O)[C@H](CC(C)C)NC(=O)[C@H](CCCN=C(N)N)NC(=O)[C@@H](NC(=O)[C@H](Cc1ccc(O)cc1)NC(=O)[C@H](CC(N)=O)NC(=O)[C@H](CC(=O)O)NC(=O)[C@H](C)NC(=O)[C@H](Cc1ccccc1)NC(=O)[C@@H](NC(=O)[C@H](C)NC(=O)[C@H](CC(=O)O)NC(=O)[C@H](CO)NC(=O)[C@@H](N)Cc1cnc[nH]1)C(C)C)[C@@H](C)O)C(C)C)C(=O)N[C@@H](CC(C)C)C(=O)N[C@@H](CC(N)=O)C(N)=O [VIP Ala7]
7.31 and 7.09 and 7.28	–	–	H-HSDAVFTDNYTRARKQMAVKKYLNSILN-NH2 [VIP Ala13]
8.36 and 8.57 and 7.88	–	–	H-HSDAVFTANYTRLRKQMAVKKYLNSILN-NH2 [VIP Ala8]
–	8.64 and 8.30	–	H-HSDAVFTDNYTRLRKQAAVKKYLNSILN-NH2 [VIP Ala17]
8.37 and 8.49 and 8.22	–	–	H-HSDAVFTDAYTRLRKQMAVKKYLNSILN-NH2 [VIP Ala9]
5.52	–	8.77 and 8.11 and 8.05	H-HSDAVFTNSYRKVLKRLSARKLLQDIL-NH2 [NSC_0]
7.32 and 6.96 and 6.78	–	–	H-HSDAVFTDNYTRLAKQMAVKKYLNSILN-NH2 [VIP Ala14]
6.68 and 6.60 and 6.25	7.12 and 6.32	–	H-ASDAVFTDNYTRLRKQMAVKKYLNSILN-NH2 [VIP Ala1]
8.39 and 7.85 and 7.73	9.40 and 8.49	–	H-HSDAVFTDNYTRLRKQMAVKKYLASILN-NH2 [VIP Ala24]
7.71 and 7.10 and 7.05	–	–	H-HSDAVFTDNYTRLRKQMAVKKYLNSIAN-NH2 [VIP Ala27]
8.47 and 8.46 and 8.68	–	–	H-HADAVFTDNYTRLRKQMAVKKYLNSILN-NH2 [VIP Ala2]
8.04 and 7.93 and 7.82 and 7.30 and 7.31 and 7.55	–	–	H-HSDAVFTDNYTRLRKQMAVKKYLNSALN-NH2 [VIP Ala26]
5.52	6.12 and 5.52	–	H-HSDAVFTDNYTRLRKQMAVKKALNSILN-NH2 [VIP Ala22]
8.62 and 8.59 and 8.30	9.37 and 8.47	–	H-HSDAVFTDNYTRLRKQMAAKKYLNSILN-NH2 [VIP Ala19]
5.52	6.14 and 5.57	–	H-HSDAVFTDNATRLRKQMAVKKYLNSILN-NH2 [VIP Ala10]
7.91 and 7.32 and 6.92	7.88 and 7.64	–	H-HSDAAFTDNYTRLRKQMAVKKYLNSILN-NH2 [VIP Ala5]
8.00 and 7.90 and 7.66	–	–	H-HSDAVFTDNYTRLRKQMAVAKYLNSILN-NH2 [VIP Ala20]
7.46 and 7.68 and 7.57	–	–	H-HSDAVFTDNYTRLRKQMAVKKYLNSILA-NH2 [VIP Ala28]
8.68 and 7.80 and 8.41	–	5.92 and 5.99	CCCC[C@H](NC(=O)[C@H](CCC(N)=O)NC(=O)[C@H](CCCCN)NC(=O)[C@H](CCCNC(=N)N)NC(=O)[C@H](CC(C)C)NC(=O)[C@H](CCCCN)NC(=O)[C@@H](NC(=O)[C@H](Cc1ccc(O)cc1)NC(=O)[C@H](CC(N)=O)NC(=O)[C@H](CCC(=O)O)NC(=O)[C@@H](NC(=O)[C@H](Cc1ccccc1)NC(=O)[C@@H](NC(=O)[C@H](C)NC(=O)[C@H](CC(=O)O)NC(=O)[C@H](CO)NC(=O)[C@H](Cc1c[nH]cn1)NC(C)=O)C(C)C)[C@@H](C)O)[C@@H](C)O)C(=O)N[C@@H](C)C(=O)N[C@@H](C)C(=O)N[C@@H](CCCCN)C(=O)N[C@H]1CCCCNC(=O)C[C@@H](C(=O)N[C@@H](CC(C)C)C(=O)N[C@@H](CCCCN)C(=O)N[C@@H](CCCCN)C(=O)NCC(=O)NCC(=O)N[C@H](C(N)=O)[C@@H](C)O)NC(=O)[C@H](CC(N)=O)NC(=O)[C@H](CC(C)C)NC(=O)[C@H](Cc2ccc(O)cc2)NC1=O [Ac-L-His-L-Ser-L-Asp-L-Ala-L-Val-L-Phe-L-Thr-L-Glu-L-Asn-L-Tyr-L-Thr-L-Lys-L-Leu-L-Arg-L-Lys-L-Gln-L-Nle-L-Ala-L-Ala-L-Lys-L-Lys(1)-L-Tyr-L-Leu-L-Asn-L-Asp(1)-L-Leu-L-Lys-L-Lys-Gly-Gly-L-Thr-NH2] (Ac-HSDAVFTENYTKLRKQ[Nle]AAKKYLNDLKKGGT-NH2; lactam 21-25)
5.77 and 5.55 and 5.57	6.96 and 6.01	–	H-HSDAVFTDNYTRLRKQMAVKKYANSILN-NH2 [VIP Ala23]
8.09 and 7.77 and 7.90	8.89 and 7.91	–	H-HSDAVFTDNYTRLRKQMAVKAYLNSILN-NH2 [VIP Ala21]
6.48 and 6.17 and 6.54	7.60 and 6.60	–	H-HSDAVFTDNYTALRKQMAVKKYLNSILN-NH2 [VIP Ala12]
6.01 and 5.94 and 5.62	6.86 and 6.26	–	H-HSAAVFTDNYTRLRKQMAVKKYLNSILN-NH2 [VIP Ala3]
7.72 and 7.39 and 7.42	8.72 and 7.78	–	H-HSDAVFTDNYTRLRAQMAVKKYLNSILN-NH2 [VIP Ala15]
